Measurements taken from patent publication US9499823B2, “Constructs expressing chimeric receptors and use thereof for the controlled activation of defence response to pathogens in plants” (priority 2009, dated 2016).
“Also recorded” adds a separate entry of the source.

Key:
[1] = system: agroinfiltrated leaves of N. tabacum ecotype SR1; experiment: Receptor internalization in agroinfiltrated tobacco leaves; format: cell-based, Nicotiana tabacum
Experimental: E) Relative variation of fluorescence in agroinfiltrated tobacco leaves expressing EFR, FLS2, eJMC and TMC and treated with 10 μM elfl8 or 10 μM flg22 for 30 min.
The GFP-dependent fluorescence was monitored from 2 to 4 days post infection in cells of the lower epidermis. Pieces of leaf were randomly cut from the infected area and mounted in water or supplemented with elicitors for microscopic observations. Flg22 and elfl8 were used at 10 μM while oligosaccharides were used at 100 μg/mL. Materials were analyzed using a Leica DM IRE epifluorescence microscope equipped with a digital cooled camera (DFC350FX R2; Leica). GFP fluorescence was excited with a 488-nm laser line, and emitted fluorescence was collected at 543-nm. The Leica Confocal Software and Adobe Photoshop 5.0 were used for post-acquisition image processing. All samples were imaged with the 40× or 100× oil objectives. Pictures were taken in Kahlman frame giving an average of 16 scans for the dynamics of internalization and 4 scans for the cellular localizations.
The behaviour of TMC and eJMC upon treatment with flg22 and elfl8 was also analysed in agroinfiltrated leaves of N. tabacum ecotype SR1 and compared to that of EFR and FLS2. […] Instead, in the eJMC expressing plants fluorescence decreased within 10-30 min after stimulation with flg22, at an extent similar to that observed in Arabidopsis, i.e. by 25% and 35% after 20 min and 30 min, respectively (FIG. 3E).

[2] = system: ethylene biosynthesis in tobacco leaves; experiment: Induction of ethylene biosynthesis in agroinfiltrated tobacco leaf explants; format: cell-based, Nicotiana tabacum; conditions: for ethylene release induced by flg22: flg22, 2 h, compared with EFR-expressing explants as negative controls
Experimental: F) Induction of ethylene biosynthesis in agroinfiltrated tobacco leaves expressing the fluorescent EFR, FLS2, TMC, eJMC and eJMC^Y859A. NC: negative control, represented by agroinfiltrated leaf tissues expressing fluorescent EFR or FLS2 and elicited with flg22 or elfl8, respectively. Results are averages±standard error (n=3).
Excised infiltrated leaf sectors were stimulated for 2 h with water or the elicitor ([…] and 100 μg/ml for OGs). Values are means±s.e.m. (N=3).
E) Induction of ethylene biosynthesis in agroinfiltrated tobacco leaves expressing EFR, WAK1, WEG and EWAK. Each construct was stimulated for 2 h with elfl8 (10 μM) or OGs (100 μg/mL). NC: negative control, represented by agroinfiltrated leaf tissue expressing EFR or FLS2 when OGs or elfl8, respectively, were used for elicitation. Error bars indicate the standard error of three independent replicates.
(A) Induction of ethylene biosynthesis in agroinfiltrated tobacco explants expressing EFR, WAK1, WEG and EWAK. […] Agroinfiltrated leaf tissues expressing EFR or WEG and elicited with OGs or elfl8 respectively, represented our negative control. Values are means±s.e.m. (N=3). (B) Elicitor-induced gene expression in untransformed Col-0 and Col-0 efr plants, and in transgenic Arabidopsis Col-0 efr plants stably expressing WEG. Accumulation of At3g22270 and At4g37640 transcripts was analysed by semi-quantitative PCR, using the UBQ5 gene for normalization. Adult leaves were syringe-infiltrated with water, OGs (25 μg/ml) or elfl8 (10 μM) for 3 h. The experiment was repeated three times with similar results. The same experiment was performed in a second independent transgenic line expressing WEG with similar results.
Approximately 150 mg of tobacco agroinfiltrated leaf were cut in small slices and extensively washed with sterile distilled water. The explants were placed in sealed 10 mL flasks containing 2 mL of sterile water alone or supplemented with 100 mg L^−1 OGs, or 1 μM flg22 or 10 μM elfl8. 450 μl headspace samples were withdrawn from the vial after 2 h treatment and analyzed by gas chromatography-mass spectrometry using an Agilent 6850A gas chromatograph coupled to a 5973N quadrupole mass selective detector (Agilent Technologies, Palo Alto, Calif., USA). Chromatographic separations were carried out an HP Plot-Q fused-silica capillary column (30 m×0.32 mm i.d.) coated with polystyrene-divinylbenzene (film thickness 0.20 μm) as stationary phase. Injection mode: splitless at a temperature of 220° C. The initial temperature of the oven was held at 50° C. for 8 min then ramped to 220° C. at a rate of 15° C./min and held for 5 min. Helium was used as carrier gas at a constant flow of 1.0 ml/min. Mass spectra were collected both in full scan and in SIM mode monitoring the ions m/z m/z 26, m/z 27 and m/z 28 (ionization energy 70 eV; ion source 280° C.; ion source vacuum 10^−5 Torr).

[3] = system: Agrobacterium tumefaciens GV3101; experiment: Growth of Agrobacterium in N. tabacum tissues transiently expressing receptor proteins; format: in vivo; conditions: 24 h after inoculation, tobacco tissues expressing the receptor
Experimental: F) Growth of Agrobacterium in N. tabacum tissues transiently expressing receptor proteins. Tobacco leaves were infiltrated with Agrobacterium expressing the indicated receptors and the number of Agrobacterium colony-forming units (c.f.u.) in the tissues was analyzed soon after infiltration (white bars) and 24 h (gray bars). EFR and eJMC were used as positive and negative controls, respectively. For each receptor, three samples were analyzed in five independent experiments. *, p<0.005.
(A) Growth of A. tumefaciens in N. tabacum tissues transiently expressing receptor proteins. Tobacco leaves were infiltrated with Agrobacterium carrying the indicated receptor constructs and the number of Agrobacterium colony-forming units (c.f.u.) in the tissues was analyzed immediately after infiltration (white bars) and after 24 h (gray bars). EFR and eJMC were used as positive and negative controls, respectively. For each receptor, three samples were analyzed in five independent experiments. Asterisks indicate statistically significant differences against control (Col-0 for WAK1 plants and Col-0 efr for WEG and EWAK plants). (B) Lesion development in Arabidopsis wild type (Col-0) and mutant Col-0 efr plants and in transgenic plants expressing WAK1, WEG and EWAK plants inoculated with B. cinerea at 48 h post-inoculation. Values are means±s.e.m. of at least 16 lesions. The same experiment was performed in a second independent transgenic line expressing WAK1 with similar results. Asterisks indicate statistically significant differences against control (Col-0 for WAK1 plants and Col-0 efr for WEG and EWAK plants).
Agrobacterium tumefaciens GV3101 strain infections was performed as described in Katagiri et al., (2002) and using a concentration of Agrobacterium corresponding at an OD600 of 1.0 in 10 mM MgCl2 and 600 μM acetosyringone. After 24 h of infiltration, serial dilution of Agrobacterium colonies were deposited on LB agar supplemented with gentamycin and rifampicin and grown for 2-3 days at 28° C. in the dark. At least 5 independent plants and 3 different leaves by plant, were used per experiment. Pectobacterium carotovorum subsp. carotovorum infections Pectobacterium carotovorum subsp. carotovorum (formely Erwinia carotovora; Gardan et al., 2003) (strain DMSZ 30169) was obtained from DSMZ GmbH (Germany). A liquid colture using 10 ml LB medium was prepared. After 16 h of growth at 28° C. on rotary shaker at 250 rpm, bacterial cells were harvested by centrifugation and the pellet was resuspended in 50 mM potassium phosphate buffer pH 7.0 corresponding to 5×10^7 CFU/ml.

Question: With FLS2 [reference compound] as the molecule, how does the “internalization after stimulation with flg22” value ([1]; 10 μM flg22, 30 min) read?
Answer: The value was “Neither FLS2 nor TMC underwent internalization”.

Question: And the “ethylene release induced by flg22” value [2]?
Answer: Its value is “only a weak response”.

Question: Which “effect on the number of living Agrobacterium cells” value [3] does the source give for “eJMC: chimera (Arg806FLS2-Val650EFR): LRR and eJM domains of FLS2 fused upstream of TM, iJM and kinase domains of EFR, GFP-fused” here?
Answer: Its value is “no significant effect; also recorded: No significant change”.

Question: What about the “fluorescence decrease after stimulation with flg22” value ([1]; 10 μM flg22, after 20 min) of the same molecule?
Answer: Its value is 25%.

Question: What about the “fluorescence decrease after stimulation with flg22” value ([1]; 10 μM flg22, after 30 min) of the same molecule?
Answer: The value was 35%.

Question: What about the “ethylene accumulation upon stimulation with elfl8” value ([2]; elfl8 10 μM, 2 h) of the same molecule?
Answer: The value was “did not”.

Question: What about the “ethylene release induced by flg22” value [2] of the same molecule?
Answer: The value was “significantly higher”.

B1: WEG: chimeric receptor: WAK1 ectodomain fused to the TM-iJM-kinase portion of EFR, GFP-fused (protein)
chain: QHQPGENCQNKCGNITIEYPFGISSGCYYPGNESFSITCKEDRPHVLSDIEVANFNHSGQLQVLLNRSSTCYDEQGKKTEEDSSFTLENLSLSANNKLTAVGCNALSLLDTFGMQNYSTACLSLCDSPPEADGECNGRGCCRVDVSAPLDSYTFETTSGRIKHMTSFHDFSPCTYAFLVEDDKFNFSSTEDLLNLRNVMRFPVLLDWSVGNQTCEQVGSTSICGGNSTCLDSTPRNGYICRCNEGFDGNPYLSAGCQDVNECTTSSTIHRHNCSDPKTCRNKVGGFYCKCQSGYRLDTTTMSCKRKEVVSGICIGIASLLLIIIVASLCWFMKRKKKNNASDGNPSDSTTLGMFHEKVSYEELHSATSRFSSTNLIGSGNFGNVFKGLLGPENKLVAVKVLNLLKHGATKSFMAECETFKGIRHRNLVKLITVCSSLDSEGNDFRALVYEFMPKGSLDMWLQLEDLERVNDHSRSLTPAEKLNIAIDVASALEYLHVHCHDPVAHCDIKPSNILLDDDLTAHVSDFGLAQLLYKYDRESFLNQFSSAGVRGTIGYAAPEYGMGGQPSIQGDVYSFGILLLEMFSGKKPTDESFAGDYNLHSYTKSILSGCTSSGGSNAIDEGLRLVLQVGIKCSEEYPRDRMRTDEAVRELISIRSKFFSSKTTITESPRDAPQSSPQEWMLNTDMHTM
modifications: left off: large carriers
Question: How did the “effect on the number of living Agrobacterium cells” value [3] turn out when B1 was run?
Answer: Its value is “no significant effect; also recorded: No significant change”.

Question: What about the “ethylene accumulation induced by OGs relative to negative control” value ([2]; OGs 100 μg/mL, 2 h, negative control OG-stimulated EFR-expressing tissues) of the same molecule?
Answer: The value was 2.4 times.

B2: EFR: Arabidopsis LRR receptor kinase Elongation Factor Tu Receptor (AT5G20480); GFP-fused control (protein)
chain: RFSNETDMQALLEFKSQVSENNKREVLASWNHSSPFCNWIGVTCGRRRERVISLNLGGFKLTGVISPSIGNLSFLRLLNLADNSFGSTIPQKVGRLFRLQYLNMSYNLLEGRIPSSLSNCSRLSTVDLSSNHLGHGVPSELGSLSKLAILDLSKNNLTGNFPASLGNLTSLQKLDFAYNQMRGEIPDEVARLTQMVFFQIALNSFSGGFPPALYNISSLESLSLADNSFSGNLRADFGYLLPNLRRLLLGTNQFTGAIPKTLANISSLERFDISSNYLSGSIPLSFGKLRNLWWLGIRNNSLGNNSSSGLEFIGAVANCTQLEYLDVGYNRLGGELPASIANLSTTLTSLFLGQNLISGTIPHDIGNLVSLQELSLETNMLSGELPVSFGKLLNLQVVDLYSNAISGEIPSYFGNMTRLQKLHLNSNSFHGRIPQSLGRCRYLLDLWMDTNRLNGTIPQEILQIPSLAYIDLSNNFLTGHFPEEVGKLELLVGLGASYNKLSGKMPQAIGGCLSMEFLFMQGNSFDGAIPDISRLVSLKNVDFSNNNLSGRIPRYLASLPSLRNLNLSMNKFEGRVPTTGVFRNATAVSVFGNTNICGGVREMQLKPCIVQASPRKRKPLSVRKKVVSGICIGIASLLLIIIVASLCWFMKRKKKNNASDGNPSDSTTLGMFHEKVSYEELHSATSRFSSTNLIGSGNFGNVFKGLLGPENKLVAVKVLNLLKHGATKSFMAECETFKGIRHRNLVKLITVCSSLDSEGNDFRALVYEFMPKGSLDMWLQLEDLERVNDHSRSLTPAEKLNIAIDVASALEYLHVHCHDPVAHCDIKPSNILLDDDLTAHVSDFGLAQLLYKYDRESFLNQFSSAGVRGTIGYAAPEYGMGGQPSIQGDVYSFGILLLEMFSGKKPTDESFAGDYNLHSYTKSILSGCTSSGGSNAIDEGLRLVLQVGIKCSEEYPRDRMRTDEAVRELISIRSKFFSSKTTITESPRDAPQSSPQEWMLNTDMHTM
Question: Which results are given for B2?
Answer: decrease in the number of living Agrobacterium cells ([3]; p<0.005): 30%; internalization response upon stimulation with elfl8 ([1]; 10 μM elfl8, 30 min): no response; ethylene accumulation upon stimulation with elfl8 ([2]; elfl8 10 μM, 2 h): accumulated ethylene; release of ethylene induced by elfl8 relative to negative control ([2]; elfl8 10 μM, 2 h, negative control FLS2-expressing explants): 3.8 times
